For data set [1], the system named is [3H]-cholesterol-loaded J774 macrophages. The data set is described as follows: In vivo cholesterol efflux to plasma in mice injected with [3H]-cholesterol-loaded J774 macrophages. To be noted: for 3H-cholesterol export into the plasma, dose response (FIGS. 17 and 18): liposome formulated, intravenous, 2, 4, 8, 16 or 32 μg/100 μl per mouse, 6 to 48 hours; for radiolabeled cholesterol exported in the plasma (FIG. 15): non-liposome formulated, in 100 μl PBS, intravenous, 15 μg/mouse peptide or 75 μg/mouse full length protein. As to the method:
In these experiments, in vivo cholesterol export was determined in mice injected with J774 macrophages cholesterol-loaded with RBC membranes and [^3H]-cholesterol. Two hundred thousand macrophages in 100:1 PBS were injected into each mouse through the tail vein. At various time points thereafter, approximately 25:1 of blood were collected from the tail vein of each animal into heparinized capillary tubes. The tubes were then centrifuged for 5 minutes in an Adams Autocrit Centrifuge to separate red blood cells from plasma. Cholesterol efflux was determined by measuring the appearance of [^3H]-cholesterol in plasma by scintillation spectrometry. To study whether export of cholesterol from J774 cells to plasma was influenced by non-liposome formulated D-27mer peptide (SEQ ID NO:10), 24 hours after injection of cholesterol-loaded J774 macrophages into mice, the same animals received, by intravenous injection, 30 μg, 60 μg, 150 μg, 225 μg, 300 μg or 600 μg of D-27mer. All these amounts of D-peptides were dissolved in 100:l of phosphate buffered saline and injected through the tail vein of each animal.
Additional in vivo studies have also been conducted wherein mice were first injected intravenously with [^3H]cholesterol-laden macrophages and then injected 24 hours later with liposomes containing 0.5 μM of synthetic peptides corresponding to amino acid residues 1-20, 21-50, 51-80 or 74-103 of murine SAA2.1. Results from this study are depicted in FIG. 1. At time points indicated in the graph of FIG. 1, approximately 25 μl of blood were collected from the tail vein of each animal. The blood samples were centrifuged to separate the red blood cells from the plasma and the [^3H]-cholesterol in plasma was determined by scintillation counting. Results are mean±SEM of four determinations.
To determine cholesterol export in vivo, J774 macrophages were cholesterol-loaded with red blood cell membranes and [^3H]-cholesterol as described above. Cells were washed four times with PBS/BSA and then detached from the culture dishes. Five million cells in 200 μl DMEM were injected into control mice or inflamed mice through the tail vein. At various time points, approximately 25 μl of blood were collected from the tail vein of each animal into heparinized capillary tubes and then centrifuged for 5 minutes in an Adams Autocrit Centrifuge to separate red blood cells from plasma. Cholesterol efflux was determined by measuring the appearance of [^3H]-cholesterol in plasma by scintillation spectrometry.
J774 cells cultured in 6-well plates were enriched with cholesterol by incubating with red blood cell (RBC) membrane fragments (175:g as cholesterol) that had been previously labeled with 0.5:Ci/ml [^3H]-cholesterol at 37° C. for 24 hours in 0.2% bovine serum albumin (BSA). After loading with the labelled RBC membrane for 6 hours, cells were then washed with phosphate-buffered saline/BSA (PBS/BSA) three times followed by an 18 hour equilibration period during which monolayers were exposed to DMEM/BSA. To determine cholesterol export in vivo, J774 macrophages were cholesterol-loaded with RBC membranes and [^3H]-cholesterol as described previously above. Cells were washed four times with PBS/BSA and then detached from the culture dishes. Two hundred thousand cells in 100:l PBS were injected into mice through the tail vein. At various time points thereafter, approximately 25:l of blood were collected from the tail vein of each animal into heparinized capillary tubes. These tubes were then centrifuged for 5 minutes in an Adams Autocrit Centrifuge to separate red blood cells from plasma. Cholesterol efflux was determined by measuring the appearance of [^3H]-cholesterol in plasma by scintillation spectrometry. […]

A further data set concerns NR8383 cells. The data set is described as follows: Cholesterol export from rat NR8383 macrophages. The settings on record: peptide/lipid mixture by microfluidizer. The class given is cell-based. On the procedure:
In these experiments, mouse J774 cells, human THP-1 cells and rat NR8383 cells were loaded with red blood cell membranes containing ^3H-cholesterol in accordance with procedures outlined in Example 4. The peptides were prepared as lipid mixtures using a microfluidizer procedure. Briefly, 3 mg of the 20-mer synthetic peptide (SEQ ID NO:30) or the 19-mer synthetic peptide (SEQ ID NO:12) was mixed with 5 ml cyclohexane and sonicated (output power of 14 watts) for 20-seconds followed by a 10-second interval. Separately, 2-oleyl-1-palmitoyl-sn-glycero-3-phosphocholine (Sigma-Aldrich P3017; 67.8 mg) and cholesterol (9.66 mg) were dissolved in 2 ml of chloroform, vortexed and transferred to a 500 ml round bottom flask. The two mixtures (i.e. cyclohexane/peptide and phosphatidylcholine/cholesterol solutions) were then combined. The combined solution was dried using nitrogen gas while swirling the flask, resulting in a thin layer of lipid at the bottom half of the flask. In order to ensure that the thin layer of lipid residue was completely dry, nitrogen gas was streamed over the lipid layer for an additional 10 minutes. […] Efficacy of the peptides was determined as the amount ^3H-cholesterol exported into the media after 24 hours. […]

The subject of another data set is THP-1 cells. The data set is described as follows: Cholesterol efflux from cholesterol-laden human THP-1 cells. The class given is cell-based. The settings on record: for 3H-cholesterol exported into the media after 24 hours (FIG. 19): peptide/lipid mixture by microfluidizer, human THP-1 cells.
A further data set deals with J774 macrophages. The data set is described as follows: [3H]cholesterol efflux from cholesterol-loaded J774 macrophages in tissue culture. The class given is cell-based, mouse. The settings on record: for 3H-cholesterol exported into the media after 24 hours (FIG. 19): peptide/lipid mixture by microfluidizer.
Data set [2] has as its system hepatic, macrophage, and pancreatic cholesterol esterase. The settings on record: Lindhorst 1997; Ely 2001; Tam 2002; cited from earlier work.
Data set [3] concerns the target T1, acyl CoA:cholesterol acyl transferase (Mus musculus, UniProt Q61263).
T1 construct: The relative activity of acyl CoA:cholesterol acyl transferase was determined in cholesterol-laden cells; host or cells: J774 mouse macrophages, cholesterol-loaded
T1 sequence (Q61263 1-540): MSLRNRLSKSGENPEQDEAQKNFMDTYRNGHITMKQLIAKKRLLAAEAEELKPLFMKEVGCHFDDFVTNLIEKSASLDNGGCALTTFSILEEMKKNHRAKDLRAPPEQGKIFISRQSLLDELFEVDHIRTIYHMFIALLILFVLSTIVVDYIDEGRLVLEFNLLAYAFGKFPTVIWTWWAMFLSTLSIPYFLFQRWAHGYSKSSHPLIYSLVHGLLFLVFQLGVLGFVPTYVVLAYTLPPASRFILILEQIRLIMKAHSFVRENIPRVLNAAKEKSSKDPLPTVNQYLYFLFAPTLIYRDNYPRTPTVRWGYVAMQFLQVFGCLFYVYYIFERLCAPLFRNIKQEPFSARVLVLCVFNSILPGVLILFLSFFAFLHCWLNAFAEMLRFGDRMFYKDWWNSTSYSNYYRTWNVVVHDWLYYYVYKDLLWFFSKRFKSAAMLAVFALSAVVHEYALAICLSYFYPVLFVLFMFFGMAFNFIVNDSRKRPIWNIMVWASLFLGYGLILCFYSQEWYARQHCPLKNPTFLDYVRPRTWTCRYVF
The settings on record: intact murine macrophages and post-nuclear homogenates; Ely et al. 2001; cited from earlier work.

In data set [4] the target is macrophage acyl CoA:cholesterol acyl transferase (murine).
In data set [5] the target is macrophage cholesterol ester hydrolase (murine).

“ADQAANEWGRSGKDPNHFR [SEQ ID NO:12, consensus 19-mer, residues 78-96 of human SAA1.1]”: the “3H-cholesterol export into the plasma, dose response (FIGS. 17 and 18)” value in data set [1] is listed as “increased efficacy as the dose increased”. Moreover, the “radiolabeled cholesterol exported in the plasma (FIG. 15)” value in data set [1] was “no effect on cholesterol efflux”. The “3H-cholesterol exported into the media after 24 hours (FIG. 19)” value with NR8383 cells, in the data set with THP-1 cells and in the data set with J774 macrophages (mouse J774 cells) was “equally effective in inducing cholesterol export” each time. For the same molecule, in the data set with THP-1 cells (liposomal formulations, 0.05 to 5.0 μM), the “cholesterol efflux, time course at various concentrations (FIG. 6)” value is reported as “continued to increase over a time period from 0 to 24 hours”. Moreover, the “cholesterol export enhancing activity, time course (FIG. 9)” value in the data set on J774 macrophages (liposomal formulations, mouse J774 cells) is recorded as “greatest cholesterol export enhancing activity”. Also, in the data set with J774 macrophages (liposomes, 0.05 to 5.0 μM, macrophages), the “increase of cholesterol efflux with dose compared to mouse peptide SEQ ID NO:4 (FIGS. 5A and 5B)” value is “at least as effective if not more effective”.

With “RSFFSFLGEAFDGARDMWRA [SEQ ID NO:30, 20-mer, residues 1-20 of human SAA1.1 or SAA2.1]”, the “3H-cholesterol export into the plasma, dose response (FIGS. 17 and 18)” value in data set [1] was “increased efficacy as the dose increased”. For the same molecule, in data set [1], the “radiolabeled cholesterol exported in the plasma (FIG. 15)” value is on record as “no effect on cholesterol efflux”. The “3H-cholesterol exported into the media after 24 hours (FIG. 19)” value in the data set with NR8383 cells, in the data set on THP-1 cells and in the data set with J774 macrophages (mouse J774 cells) was “equally effective in inducing cholesterol export” each time.

B1: KEANWKNSDKYFHARGNYDAAQRGPGGVWAAEKISDGREAFQEFFGRGHEDTIADQEAN RHGRSGKDPNYYRPPGLPDKY (protein)
chain: KEANWKNSDKYFHARGNYDAAQRGPGGVWAAEKISDGREAFQEFFGRGHEDTIADQEANRHGRSGKDPNYYRPPGLPDKY
notes: 80-mer cyanogen bromide fragment of murine SAA2.1, residues 24-103
In the case of B1, the “cholesterol esterase activities in vitro” value in data set [2] is on record as “effect was shown to reside”. Moreover, in data set [3], the “macrophage ACAT activity” value is given as “no inhibitory effect on ACAT activity”.

GFFSFVHEAFQGAGDMWRAY [synthetic peptide corresponding to amino acid residues 1-20 of murine SAA2.1]: the acyl CoA:cholesterol acyl transferase activity (incorporation of [14C]oleate into cholesteryl ester), cholesterol-laden murine cells, liposomes with 0.5 µM peptide, 6 hour incubation (fold decrease) in data set [4] was 2.

On to DTIADQEANRHGRSGKDPNYYRPPGLPDKY [synthetic peptide corresponding to amino acid residues 74-103 of murine SAA2.1], for which the rate of hydrolysis of [14C]-labeled cholesteryl oleate in J774 cells, re-esterification blocked with Sandoz 58-035 (fold increase) in data set [5] was 3.
